Assays:
Format in all cases: cell-based
MM.1S cell strain = assay: Inhibitory activity of cell strain (CellTiter-Glo); details: Homo sapiens, MM1.S, 72 h incubation
How it was run: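 Cells seeded at 1×10^5 per well in RPMI1640 complete medium for 24 h, then treated 72 h at 37 °C, 5% CO2 with 3-fold dilutions, final 5×10^−7 M down to 2.29×10^−10 M. CellTiter-Glo luminescence; inhibition calculated against DMSO-only cells and medium-only blanks.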

[1] = molecular target: T1, β5i subunit of the 20S proteasome (Homo sapiens, UniProt P20618+P28062); assay: Proteasome inhibitory activity, β5i subunit (Raji cells treated with compound, lysed, Ac-ANW-AMC substrate); details: proteasome from Raji cells incubated with compound 4 h
T1 construct: The proteasome tested in the present disclosure was derived from Raji cells; endogenous in cells; host or cells: Raji cells
How it was run: (§1)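 Raji cells were treated for 4 h at 37 °C with compound (from 1 μM, 3-fold, 8 concentrations), then lysed. Lysate activity was read 10 min at 37 °C with Ac-ANW-AMC (β5i) or Suc-LLVY-AMC (β5c) at 345/445 nm. Percent inhibition was relative to DMSO-treated lysate.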

[2] = molecular target: T2, β5c subunit of the 20S proteasome (Homo sapiens, UniProt P20618+P28074); assay: Proteasome inhibitory activity, β5c subunit (Raji cells treated with compound, lysed, Suc-LLVY-AMC substrate); details: proteasome from Raji cells incubated with compound 4 h
T2 construct: The proteasome tested in the present disclosure was derived from Raji cells; endogenous in cells; host or cells: Raji cells
How it was run: as §1

Measured: IC50

COc1cccc(CCNC(=O)C(C)C(=O)N[C@@H](Cc2coc3ccccc23)B(O)O)c1 (stereo partly drawn) [Example 63, ((1R)-2-(benzofuran-3-yl)-1-(3-((3-methoxyphenylethyl)amino)-2-methyl-3-oxopropionamido)ethyl)boric acid]
≤ 50 nM: all assays above

Cc1ccc(C[C@H](NC(=O)C(C)C(=O)NCc2ccc(Cl)cc2Cl)B(O)O)cc1 (stereo partly drawn) [Example 59, ((1R)-1-(3-((2,4-dichlorobenzyl)amino)-2-methyl-3-oxopropionamido)-2-(p-tolyl)ethyl)boric acid]
≤ 50 nM: all assays above

From US20250346613A1, “BORIC ACID PROTEASOME INHIBITOR AND USE THEREOF” (ARTIVILA BIOPHARMA, priority 2022, published 2025)
